Source: patent US8796292B2, “Selective antibacterials for clostridium difficile infections” (GLSynthesis Inc., priority 2009, dated 2014)
Converted amounts (≈) assume the structure as drawn. Where two headings read alike, the source gives them in different places.

How the values were obtained:
L. casei = assay: agar dilution MIC assay of anaerobic bacteria; assay type: cell-based, Lactobacillus casei; details: Lacticaseibacillus casei, Strain no. 1722 (ATCC strain), Table 3
Procedure: (§1) Each compound was assayed against a panel of anaerobic bacteria in culture, consisting of Gram-positive organisms, such as Lactobacilli, Bifidobacteria, Clostridium spp., and Gram-negative bacteria, such as […] fragilis spp., according to guidelines of the Clinical and Laboratory Standards Institute (CLSI document M11-A7, CLSI, Wayne, Pa., 2007). […] One tenth mL of diluted bacteria containing 500-1000 colony-forming units (CFU) was plated and spread, and the plates incubated at 37° C. for 24-48 hours. MIC (minimum inhibitory concentration) is equivalent to the lowest concentration in μg/ml at which growth, i.e., colony formation, is not observed. […] Bacteria were assayed using a reference agar dilution method. Drug dilutions and drug-supplemented agar plates were prepared manually. The test organisms were maintained frozen at −80° C. The isolates were sub-cultured on Supplemented Brucella Agar (SBA) plates in a Bactron II anaerobic chamber and incubated for 48 hours at 35-36° C. in the Bactron II anaerobe chamber. Following inoculation, the drug-supplemented plates were incubated at 35° C. for 48 hours in the anaerobic environment (5% hydrogen, 5% carbon dioxide, 90% nitrogen) of the Bactron II. The MIC in μg/ml was read per Clinical and Laboratory Standards Institute guidelines.

Bi. brevi = assay: agar dilution MIC assay of anaerobic bacteria; assay type: cell-based, Bifidobacterium brevi; details: Bifidobacterium breve; Bi. Breve, Strain no. 3967 (ATCC strain), Table 3
Procedure: as §1

C. difficile = assay: agar dilution MIC assay of anaerobic bacteria; assay type: cell-based, Clostridium difficile; details: for MIC: Clostridioides difficile, read-out: MIC
Procedure: as §1

C. diff. (ATCC43255) = assay: clindamycin-induced C. diff. infection model in Syrian golden hamsters; assay type: in vivo; details: for % Survivors at 120 hr / Survivors at 24 hr / Survivors at 48 hr / Survivors at 66 hr / Survivors at 72 hr / Survivors at 96 hr: n = 6 hamsters
From the text: Compound 359E was given orally as a suspension in 1% carboxymethylcellulose to Syrian Golden hamsters, pretreated subcutaneously with clindamycin and infected orally with C. diff. (ATCC43255) as described in Table 5.

L. acidophilus = assay: agar dilution MIC assay of anaerobic bacteria; assay type: cell-based; details: Lactobacillus acidophilus, Strain no. 0681, Table 3
Procedure: as §1

Ba. fragilis = assay: agar dilution MIC assay of anaerobic bacteria; assay type: cell-based; details: Bacteroides fragilis, B. fragilis
Procedure: as §1

Bi. longum = assay: agar dilution MIC assay of anaerobic bacteria; assay type: cell-based, Bifidobacterium longum; details: Bifidobacterium longum; Bi. Longum, Strain no. 3968 (ATCC strain), Table 3; read-out: MIC
Procedure: as §1

E. lentum = assay: agar dilution MIC assay of anaerobic bacteria; assay type: cell-based, Eubacterium lentum; details: Eggerthella lenta; Eu. Lentum, Strain no. 1274 (ATCC strain), Table 3; read-out: MIC
Procedure: as §1

O=c1[nH]c(NCc2ccc(Cl)c(Cl)c2)nc2ncn(CCCCCN3CCOCC3)c12 [Compound 359E, 7-[5-(N-morpholinyl)pentyl]-2-(3,4-dichlorobenzylamino)-6-oxopurine]
MIC (L. casei): 16 µg/mL (≈ 34.4 µM) | MIC (Bi. brevi): > 32 µg/mL | MIC (C. difficile; C. diff. Strain no. 18285, Table 4): 8 µg/mL (≈ 17.2 µM) | MIC (C. difficile; C. diff. Strain no. 19265, Table 4): 8 µg/mL (≈ 17.2 µM) | MIC (C. difficile; C. diff. Strain no. 19273, Table 4): 8 µg/mL (≈ 17.2 µM) | MIC (C. difficile; C. diff. Strain no. 19281, Table 4): 8 µg/mL (≈ 17.2 µM) | MIC (C. difficile; C. diff. Strain no. 19291, Table 4): 4 µg/mL (≈ 8.6 µM) | MIC (C. difficile; C. diff. Strain no. 19369, Table 4): 8 µg/mL (≈ 17.2 µM) | MIC (C. difficile; C. diff. Strain no. 19382, Table 4): 2 µg/mL (≈ 4.3 µM) | MIC (C. difficile; C. diff. Strain no. 19540, Table 4): 4 µg/mL (≈ 8.6 µM) | MIC (C. difficile; C. diff. Strain no. 19580, Table 4): 2 µg/mL (≈ 4.3 µM) | MIC (C. difficile; C. diff. Strain no. 19680, Table 4): 8 µg/mL (≈ 17.2 µM) | MIC (C. difficile; C. diff. Strain no. 19681, Table 4): 8 µg/mL (≈ 17.2 µM) | MIC (C. difficile; C. diff. Strain no. 19683, Table 4): 8 µg/mL (≈ 17.2 µM) | MIC (C. difficile; C. diff. Strain no. 19687, Table 4): 8 µg/mL (≈ 17.2 µM) | MIC (C. difficile; C. diff. Strain no. 20066, Table 4): 8 µg/mL (≈ 17.2 µM) | MIC (C. difficile; C. diff. Strain no. 20152, Table 4): 8 µg/mL (≈ 17.2 µM) | MIC (C. difficile; C. diff. Strain no. 20307, Table 4): 8 µg/mL (≈ 17.2 µM) | MIC (C. difficile; C. diff. Strain no. 20494, Table 4): 8 µg/mL (≈ 17.2 µM) | MIC (C. difficile; C. diff. Strain no. 20680, Table 4): 8 µg/mL (≈ 17.2 µM) | MIC (C. difficile; C. diff. Strain no. 20934, Table 4): 2 µg/mL (≈ 4.3 µM) | MIC (C. difficile; C. diff. Strain no. 21099, Table 4): 8 µg/mL (≈ 17.2 µM) | MIC (C. difficile; C. diff., Micromyx Number 3579, Table 2): 2 µg/mL (≈ 4.3 µM) | MIC (C. difficile; C. diff., Micromyx Number 3580, Table 2): 2 µg/mL (≈ 4.3 µM) | MIC (C. difficile; C. diff., Micromyx Number 3581, Table 2): 2 µg/mL (≈ 4.3 µM) | MIC (C. difficile; C. diff., Micromyx Number 3582 (ATCC strain), Table 2): 2 µg/mL (≈ 4.3 µM) | MIC (C. difficile; C. diff., Strain no. 3580, Table 3): 4 µg/mL (≈ 8.6 µM) | MIC (C. difficile; C. diff., Strain no. 3581, Table 3): 2 µg/mL (≈ 4.3 µM) | MIC (C. difficile; C. diff., Strain no. 3582, Table 3): 8 µg/mL (≈ 17.2 µM) | MIC (C. difficile; C. diff., Strain no. 3584, Table 3): 2 µg/mL (≈ 4.3 µM) | MIC (C. difficile; C. diff., Strain no. 3585, Table 3): 4 µg/mL (≈ 8.6 µM) | MIC (C. difficile; C. diff., Strain no. 3586, Table 3): 2 µg/mL (≈ 4.3 µM) | MIC (C. difficile; C. diff., Strain no. 3587, Table 3): 4 µg/mL (≈ 8.6 µM) | MIC (C. difficile; C. diff., Strain no. 3588, Table 3): 0.5 µg/mL (≈ 1.07 µM) | MIC (C. difficile; C. diff., Strain no. 3589, Table 3): 4 µg/mL (≈ 8.6 µM) | MIC (C. difficile; C. diff., Strain no. 4381 (ATCC strain), Table 3): 2 µg/mL (≈ 4.3 µM) | potency and selectivity against C. diff. versus other Gram-positive anaerobes (in words) (C. difficile; summary of MIC panels, Tables 1 and 3): best profile | % Survivors at 120 hr (C. diff. (ATCC43255); 25 mg/kg PO bid for 3 days): 100% | Survivors at 24 hr (C. diff. (ATCC43255); 25 mg/kg PO bid for 3 days): 6 | Survivors at 48 hr (C. diff. (ATCC43255); 25 mg/kg PO bid for 3 days): 6 | Survivors at 66 hr (C. diff. (ATCC43255); 25 mg/kg PO bid for 3 days): 6 | Survivors at 72 hr (C. diff. (ATCC43255); 25 mg/kg PO bid for 3 days): 6 | Survivors at 96 hr (C. diff. (ATCC43255); 25 mg/kg PO bid for 3 days): 6 | % Survivors at 120 hr (C. diff. (ATCC43255); 50 mg/kg PO bid for 3 days): 100% | Survivors at 24 hr (C. diff. (ATCC43255); 50 mg/kg PO bid for 3 days): 6 | Survivors at 48 hr (C. diff. (ATCC43255); 50 mg/kg PO bid for 3 days): 6 | Survivors at 66 hr (C. diff. (ATCC43255); 50 mg/kg PO bid for 3 days): 6 | Survivors at 72 hr (C. diff. (ATCC43255); 50 mg/kg PO bid for 3 days): 6 | Survivors at 96 hr (C. diff. (ATCC43255); 50 mg/kg PO bid for 3 days): 6 | protection from lethal infection with C. diff. (in words) (C. diff. (ATCC43255); oral suspension in 1% carboxymethylcellulose, twice daily): protected hamsters from lethal infection | MIC (L. acidophilus): 2 µg/mL (≈ 4.3 µM) | MIC (Ba. fragilis; Micromyx Number 0123 (ATCC strain), Table 2): > 32 µg/mL | MIC (Ba. fragilis; Strain no. 0123 (ATCC strain), Gram-negative (control), Table 3): > 32 µg/mL | MIC (Bi. longum): > 32 µg/mL | MIC (E. lentum): > 32 µg/mL
